Assay results as given in US11793879B2, “Monolithic composition for dual-rate release with high drug loading” (priority 2016, dated 2023).

Details: for immediate release / immediate release (amount): Example 5 monolithic tablet (900 mg acetaminophen + 100 mg caffeine), after 30 minutes in SGF
Procedure: The dissolution kinetic assay is followed with a Distek™ apparatus according to the paddle method from USP-32, with slight modification. Indeed, the monolithic tablets are placed in 750 mL of simulated gastric fluid (SGF, pH 1.5) during 30 minutes, at 37° C. Thereafter, a volume of 250 mL of sodium tripolyphosphate 0.20 M is added directly in SGF to neutralize the gastric acidity for pH values of about 6.8-7.0 which constituted the pH of simulated intestinal fluid (SIF).
At different intervals of 30 minutes, an aliquot of 1 mL of dissolution fluid is withdrawn from dissolution media, filtered and properly diluted (approximately 1/50). The absorbency is measured with an UV spectrometer (Lambda-40 Spectrometer, Perkin Elmer) at 247 nm.
The Carboxymethyl starch is prepared according to the process of the present invention. […] For acetaminophen, the absorbency of samples is measured with an UV spectrometer at 247 nm. For caffeine, the dosage is carried out by HPLC according to method described by Hassouna et al. (Hassouna, M. E. M, Issa, Y. M. and Zayed, A. G. 2012. J. Appl. Pharm. Sci., 02, 52-59)

In the case of `CC(=O)Nc1ccc(O)cc1` [Acetaminophen], the “immediate release of Acetaminophen (amount)” value (Example 4 monolithic tablet (1000 mg acetaminophen), after 45 minutes (30 minutes in SGF and 15 minutes in SIF)) is reported as ~600 mg, the “immediate release of Acetaminophen” value (Example 4 monolithic tablet (1000 mg acetaminophen, carboxymethyl starch excipient), after 45 minutes (30 minutes in SGF pH 1.5 and 15 minutes in SIF), 37° C., FIG. 2) is reported as ~60% and the immediate release is reported as ~35%. The “immediate release (amount)” value was ~350 mg.
With `Cn1c(=O)c2c(ncn2C)n(C)c1=O` [caffeine, Caffeine] the immediate release was ~25% and the “immediate release (amount)” value was ~25 mg.
